Data as given in ChEMBL document CHEMBL1128571, “Acylshikonin analogues: synthesis and inhibition of DNA topoisomerase-I” (J Med Chem, 1995).

Target: T1, DNA topoisomerase 1 (Homo sapiens, UniProt P11387)
T1 sequence (P11387 whole entry): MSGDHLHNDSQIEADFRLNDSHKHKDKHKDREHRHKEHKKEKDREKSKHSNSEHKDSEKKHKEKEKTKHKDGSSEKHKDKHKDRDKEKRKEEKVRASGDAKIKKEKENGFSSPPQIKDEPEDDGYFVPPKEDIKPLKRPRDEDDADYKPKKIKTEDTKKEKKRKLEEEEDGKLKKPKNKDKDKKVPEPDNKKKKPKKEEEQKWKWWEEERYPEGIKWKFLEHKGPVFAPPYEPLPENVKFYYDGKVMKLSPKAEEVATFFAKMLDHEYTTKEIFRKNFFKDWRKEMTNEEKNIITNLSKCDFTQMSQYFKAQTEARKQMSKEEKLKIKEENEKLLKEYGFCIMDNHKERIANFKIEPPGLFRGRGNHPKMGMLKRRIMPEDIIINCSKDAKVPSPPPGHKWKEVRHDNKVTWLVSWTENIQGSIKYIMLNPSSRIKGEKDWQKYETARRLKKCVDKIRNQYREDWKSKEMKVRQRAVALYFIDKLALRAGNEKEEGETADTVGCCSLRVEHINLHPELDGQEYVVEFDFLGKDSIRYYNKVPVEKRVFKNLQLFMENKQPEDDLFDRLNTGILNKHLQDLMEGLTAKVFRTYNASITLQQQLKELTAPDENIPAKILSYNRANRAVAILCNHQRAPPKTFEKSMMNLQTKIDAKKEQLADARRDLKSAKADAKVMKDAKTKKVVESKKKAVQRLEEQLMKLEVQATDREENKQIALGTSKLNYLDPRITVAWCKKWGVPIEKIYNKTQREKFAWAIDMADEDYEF
Test: Inhibitory activity against DNA topoisomerase-1 obtained from Hela cells
Assay type: cell-based

Row | SMILES | IC50 [µM]
1 | CCCCCC(=O)O[C@H](CC=C(C)C)C1=CC(=O)c2c(O)ccc(O)c2C1=O | 207
2 | CCCCCCCCCCCC(=O)O[C@H](CC=C(C)C)C1=CC(=O)c2c(O)ccc(O)c2C1=O | > 625
3 | CC/C=C/CC(=O)O[C@H](CC=C(C)C)C1=CC(=O)c2c(O)ccc(O)c2C1=O | 153
4 | CCCCCCCC/C=C/CCCCCCCC(=O)O[C@H](CC=C(C)C)C1=CC(=O)c2c(O)ccc(O)c2C1=O | > 625
5 | CC/C=C/C(=O)O[C@H](CC=C(C)C)C1=CC(=O)c2c(O)ccc(O)c2C1=O | 80
6 | CCCCCCCCCCCCCCCCCC(=O)O[C@H](CC=C(C)C)C1=CC(=O)c2c(O)ccc(O)c2C1=O | > 625
7 | CCCCCCCCCC(=O)O[C@H](CC=C(C)C)C1=CC(=O)c2c(O)ccc(O)c2C1=O | > 625
8 | C=CCCC(=O)O[C@H](CC=C(C)C)C1=CC(=O)c2c(O)ccc(O)c2C1=O | 40
9 | CC(C)=CC[C@@H](OC(=O)C(Cl)(Cl)Cl)C1=CC(=O)c2c(O)ccc(O)c2C1=O | 115
10 | CC(C)=CC[C@@H](OC(=O)Cc1ccccc1)C1=CC(=O)c2c(O)ccc(O)c2C1=O | 222
11 | CC(C)=CC[C@@H](OC(=O)c1ccccc1)C1=CC(=O)c2c(O)ccc(O)c2C1=O | 153
12 | CCCC(=O)O[C@H](CC=C(C)C)C1=CC(=O)c2c(O)ccc(O)c2C1=O | 144
13 | CC(C)=CC[C@@H](OC(=O)CCl)C1=CC(=O)c2c(O)ccc(O)c2C1=O | 137
14 | CC(C)=CC[C@@H](OC(=O)/C=C(C)/C=C/C=C(C)/C=C/C1=C(C)CCCC1(C)C)C1=CC(=O)c2c(O)ccc(O)c2C1=O | > 625
15 | CCCCC/C=C/C/C=C/CCCCCCCC(=O)O[C@H](CC=C(C)C)C1=CC(=O)c2c(O)ccc(O)c2C1=O | > 625
16 | CCC(=O)O[C@H](CC=C(C)C)C1=CC(=O)c2c(O)ccc(O)c2C1=O | 44

Row | SMILES | IC50 [µM]
17 | CC(C)=CC[C@@H](OC(=O)\C=C(C)/C=C/C=C(C)/C=C/C1=C(C)CCCC1(C)C)C1=CC(=O)c2c(O)ccc(O)c2C1=O | > 625
18 | C/C=C/C=C/C(=O)O[C@H](CC=C(C)C)C1=CC(=O)c2c(O)ccc(O)c2C1=O | 130
19 | CCCCCCC(=O)O[C@H](CC=C(C)C)C1=CC(=O)c2c(O)ccc(O)c2C1=O | 625
20 | C=CCC/C=C/C(=O)O[C@H](CC=C(C)C)C1=CC(=O)c2c(O)ccc(O)c2C1=O | 126
21 | CCCCCCCCCCCCCCCC(=O)O[C@H](CC=C(C)C)C1=CC(=O)c2c(O)ccc(O)c2C1=O | > 625
22 | CCC/C=C/C(=O)O[C@H](CC=C(C)C)C1=CC(=O)c2c(O)ccc(O)c2C1=O | 153
23 | C=CCCCCC(=O)O[C@H](CC=C(C)C)C1=CC(=O)c2c(O)ccc(O)c2C1=O | 250
24 | CCCCCCCCC(=O)O[C@H](CC=C(C)C)C1=CC(=O)c2c(O)ccc(O)c2C1=O | > 625
25 | CCCCCCCC(=O)O[C@H](CC=C(C)C)C1=CC(=O)c2c(O)ccc(O)c2C1=O | > 625
26 | CCCCC(=O)O[C@H](CC=C(C)C)C1=CC(=O)c2c(O)ccc(O)c2C1=O | 161
27 | CC(C)=CC[C@@H](OC(=O)C(c1ccccc1)c1ccccc1)C1=CC(=O)c2c(O)ccc(O)c2C1=O | > 625
28 | CCCCC/C=C/C/C=C/C/C=C/CCCCC(=O)O[C@H](CC=C(C)C)C1=CC(=O)c2c(O)ccc(O)c2C1=O | > 625
29 | CC(=O)O[C@H](CC=C(C)C)C1=CC(=O)c2c(O)ccc(O)c2C1=O [ACETYLSHIKONIN] | 45
30 | CC(C)=CC[C@@H](OC(=O)C=C(C)C)C1=CC(=O)c2c(O)ccc(O)c2C1=O [DIMETHYLACRYLSHIKONIN] | 77
31 | CC(C)=CC[C@@H](OC(=O)C(C)C)C1=CC(=O)c2c(O)ccc(O)c2C1=O [ISOBUTYLSHIKONIN] | 84
32 | CC(C)=CC[C@@H](O)C1=CC(=O)c2c(O)ccc(O)c2C1=O [SHIKONIN] | 208
